Here are results for three compounds from patent US20160184338A1, “Bioactive Alkaloid Compositions and Their Medical Uses” (Asiros A/S, priority 2013, published 2016).

SMILES strings stand for the structures. Entries after “also recorded” stand apart in the source; their conditions may differ.

In one test the target is T1, PDE5A (Homo sapiens, UniProt O76074).
T1 construct: purchased BSP Bioscience 60350
Description: PDE5A Assay Kit, fluorescence polarization. The conditions noted are these: PDE5. The class given is biochemical. The procedure: Inhibition of PDE5 blocks hydrolysis of cGMP, thereby increasing levels of cGMP. The PDE5A Assay Kit is designed for identification of PDE5A inhibitors using fluorescence polarization. The assay is based on the binding of a fluorescent nucleotide monophosphate generated by PDE5A to the binding agent.
The assay was performed according to the protocol of the PDE5A assay provided by BSP Bioscience [BSP Bioscience, Data sheet PDE5A Assay Kit, Catalog #60350].
(§1) A fluorescence plate reader (Appliskan, Thermo Scientific) was used to detect fluorescence emission signals according to the following parameters:
Test Compounds • Selected alkaloids of the invention prepared in example 1 were tested in 5 times dilutions to establish the 50% inhibitory concentration (IC-50).
On the technique in general: Polarisation of emitted light reports the rotation of a fluorescent probe.

A further test concerns the target T2, PDE4A1A (Homo sapiens, UniProt P27815).
T2 construct: purchased BSP Bioscience 60340
The test is described as follows: PDE4A1A Assay Kit, fluorescence polarization. It is filed as biochemical. The conditions noted are these: PDE4. The procedure: Inhibition of PDE4 blocks hydrolysis of cAMP, thereby increasing levels of cAMP. The PDE4A1A Assay Kit is designed for identification of PDE4A1A inhibitors using fluorescence polarization. The assay is based on the binding of fluorescent AMP generated by PDE4A1A to the binding agent.
The assay was performed according to the protocol of the PDE4A1A assay provided by BSP Bioscience [BSP Bioscience, Data sheet PDE4A1A Assay Kit, Catalog #60340].
as §1
(§2) Selected alkaloids of the invention prepared in example 1 were tested in 5 times dilutions to establish the 50% inhibitory concentration (IC-50).

The target in a further test is T3, IkappaB kinase β (IKK-β) (Homo sapiens, UniProt O14920).
T3 construct: purchased Invitrogen
T3 sequence (O14920 1-756): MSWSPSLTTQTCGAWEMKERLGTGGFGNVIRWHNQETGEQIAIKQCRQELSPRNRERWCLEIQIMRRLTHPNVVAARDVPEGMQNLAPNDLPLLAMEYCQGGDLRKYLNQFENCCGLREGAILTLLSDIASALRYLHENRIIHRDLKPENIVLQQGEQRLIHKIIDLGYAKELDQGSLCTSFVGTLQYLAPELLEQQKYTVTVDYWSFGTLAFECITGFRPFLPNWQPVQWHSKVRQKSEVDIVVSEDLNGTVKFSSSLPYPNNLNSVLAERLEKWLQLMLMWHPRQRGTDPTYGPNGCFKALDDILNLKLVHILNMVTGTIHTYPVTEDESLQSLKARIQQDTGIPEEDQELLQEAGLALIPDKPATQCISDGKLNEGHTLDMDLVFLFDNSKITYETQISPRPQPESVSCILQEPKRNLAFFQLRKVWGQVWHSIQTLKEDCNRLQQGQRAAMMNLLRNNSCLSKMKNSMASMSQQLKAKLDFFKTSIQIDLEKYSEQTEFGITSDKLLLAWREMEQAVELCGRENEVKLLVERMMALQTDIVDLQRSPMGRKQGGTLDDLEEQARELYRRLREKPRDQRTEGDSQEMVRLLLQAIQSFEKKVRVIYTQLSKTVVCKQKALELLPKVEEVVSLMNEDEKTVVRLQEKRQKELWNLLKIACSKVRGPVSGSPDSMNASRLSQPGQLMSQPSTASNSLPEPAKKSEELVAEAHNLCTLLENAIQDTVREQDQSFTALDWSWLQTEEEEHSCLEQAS
The test is described as follows: IKK-β inhibition, Z'-LYTE Kinase Assay Kit-Ser/Thr 5 Peptide (FRET). It is filed as biochemical. The procedure:
IKK-β phosphorylates the inhibitory IκB protein associated with NE-κB. Phosphorylation results in the dissociation of IκB from NE-κB, allowing NE-κB to migrate into the cell nucleus where it can activate the transcription of at least 150 genes. The Z9-LYTE™ Kinase Assay Kit-Ser/Thr 5 Peptide is designed to screen for potential IKK-β inhibitory effect using fluorescence resonance energy transfer (FRET) between coumarin and fluorescein for detection by a fluorometer.
The assay was performed according to Z9-LYTE™ KINASE ASSAY KIT-SER/THR 5 PEPTIDE protocol provided by Invitrogen [Invitrogen, Z′-LYTE™ Kinase Assay Kit-Ser/Thr 5 Peptide Protocol, O-062187-r1 US 0405]. Based on the IKK-β certificate of the kit, a kinase concentration of 500 ng/ml was chosen. Km for ATP 9.4 μM was chosen according to an optimization for the LanthaScreen™ kinase assay [http://tools.invitrogen.com/content/sfs/manuals/IKBKB_%28IKK_beta%29_LanthaScreen_Activity.pdf].
as §1, §2

Test [1] has as its system BKS Cg-Lepr db/Lepr db mice. The test is described as follows: Hypoglycemic effect in NIDDM mice. It is filed as in vivo, mouse. Particulars: oral daily 14 days (RAP4 2000 mg/kg, metformin 300 mg/kg), day 14 post dosing. The method, then: Male non-insulin dependent diabetic mellitus (NIDDM) mice (BKS Cg-Lepr db/Lepr db) weighing 50+/−5 g were used at age of 12-13 weeks. A daily oral dose of 2000 mg/kg of RAP4 corresponding to corresponding to 112 μg/kg of Ribetril A and 492 μg/kg total Ribetrils as well as 240 μg/kg total Glucoindols was administered orally at a dosing volume of 10 mL/kg to 12 animals for a total of 14 consecutive days. The positive control of metformin (300 mg/kg) and vehicle (2% Tween 80) were each administered orally at a dosing volume of 10 mL/kg to groups of 6 animals once daily for a total of 14 consecutive days. Serum glucose levels were measured by means of an automated analyzer (TBA-120FR, Toshiba) and serum insulin by ELISA at zero min (pre-treatment) on Day 1, and at 90 min after the daily dosing (post-treatment) on Day 7 and Day 14.

Test [2] has as its system hyperlipidemic guinea pigs. The test is described as follows: Hypocholesterolemic effect in guinea pigs on high fat diet. It is filed as in vivo, guinea pig. The conditions noted are these: 10 mg/kg oral daily, 28 days. The procedure:
Male Dunkin-Hartley guinea pigs weighing 300+/−30 g were acclimated one week before the in-life phase of the experiment. The study diet (Research Diets Inc, New Brunswick, N.J., USA) contained 15% corn oil and 0.25% cholesterol. A daily oral dose of 2000 mg/kg of RAP2 corresponding 9 μg/kg of Ribetril A and 82 μg/kg total Ribetrils as well as 632 μg/kg total Glucoindols was administered orally at a dosing volume of 10 mL/kg. A daily oral dose of 2000 mg/kg of RAP4 corresponding to 112 μg/kg of Ribetril A and 492 μg/kg total Ribetrils as well as 240 μg/kg total Glucoindols was administered orally at a dosing volume of 10 mL/kg. The positive control atorvastatin (10 mg/kg) and vehicle (0.5% methylcellulose) were each administered orally at a dosing volume of 10 mL/kg. […]
After fasting overnight, blood samples were obtained from the retro-orbital sinus of each animal 5 min before initial test substance and/or vehicle administration (pre-treatment) and 24 hours after dosing on days 14 and 28 (post-treatment). The serum total cholesterol (TC), low density lipoprotein cholesterol (LDL-C), high density lipoprotein cholesterol (HDL-C) and triglycerides (TG) were determined by an enzymatic method (Wako total cholesterol, LDL-C, HDL-C & TG diagnostic kit and Toshiba Automatic Analyzer Model TAB-120FR).

T2 sequence (P27815 1-647 isoform P27815-4): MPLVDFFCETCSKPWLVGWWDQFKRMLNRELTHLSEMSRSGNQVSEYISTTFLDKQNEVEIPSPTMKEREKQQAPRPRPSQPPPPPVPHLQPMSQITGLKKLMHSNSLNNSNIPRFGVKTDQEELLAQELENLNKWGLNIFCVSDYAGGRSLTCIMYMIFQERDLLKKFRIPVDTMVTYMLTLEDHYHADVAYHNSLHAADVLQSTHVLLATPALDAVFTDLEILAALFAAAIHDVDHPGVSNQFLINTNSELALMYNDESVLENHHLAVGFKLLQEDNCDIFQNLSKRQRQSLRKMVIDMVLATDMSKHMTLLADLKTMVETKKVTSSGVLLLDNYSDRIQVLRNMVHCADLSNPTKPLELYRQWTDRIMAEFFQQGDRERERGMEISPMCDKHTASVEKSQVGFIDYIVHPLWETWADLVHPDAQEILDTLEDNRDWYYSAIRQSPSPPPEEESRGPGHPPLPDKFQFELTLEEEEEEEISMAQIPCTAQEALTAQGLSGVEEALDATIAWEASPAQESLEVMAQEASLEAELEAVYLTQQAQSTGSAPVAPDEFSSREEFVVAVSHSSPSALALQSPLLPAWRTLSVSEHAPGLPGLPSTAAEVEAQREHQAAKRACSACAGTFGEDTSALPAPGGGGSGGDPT

In the case of `N#C/C(=C\CO[C@@H]1O[C@H](CO)[C@@H](O)[C@H](O)[C@H]1O)COC(=O)/C=C/c1ccc(O)c(O)c1` [Ribetril A, (E)-(E)-2-cyano-4-(((2R,3R,4S,5S,6R)-3,4,5-trihydroxy-6-(hydroxymethyl)tetrahydro-2H-pyran-2-yl)oxy)but-2-en-1-yl 3-(3,4-dihydroxyphenyl)acrylate], the “times lower IC-50 as compared to Ribetril B” value came out at 3 times on PDE5A, 5 times at PDE4A1A and 48 times at IkappaB kinase β (IKK-β). In addition, the results for the “times lower IC-50 as compared to Ribetril C” value at PDE5A, on PDE4A1A and at IkappaB kinase β (IKK-β) were 8 times, 20 times and 118 times, respectively.

As to `CN(C)C(=N)N=C(N)N` [metformin], the “serum glucose levels relative to vehicle control” value in test [1] is recorded as “significant decrease”.

On to `CC(C)c1c(C(=O)Nc2ccccc2)c(-c2ccccc2)c(-c2ccc(F)cc2)n1CC[C@@H](O)C[C@@H](O)CC(=O)O` [atorvastatin], for which the “effect on triglycerides” value in test [2] is “did not significantly reduce triglycerides; also recorded: did not display a significant decreasing effect on triglyceride levels”.
